This note sets out measurements from patent publication US20260007681A1, “INDOLE DERIVATIVES AS ESTROGEN RECEPTOR DEGRADERS” (REGENTS OF THE UNIVERSITY OF MICHIGAN, priority 2022, published 2026).

Sequence of ER (P03372 whole entry): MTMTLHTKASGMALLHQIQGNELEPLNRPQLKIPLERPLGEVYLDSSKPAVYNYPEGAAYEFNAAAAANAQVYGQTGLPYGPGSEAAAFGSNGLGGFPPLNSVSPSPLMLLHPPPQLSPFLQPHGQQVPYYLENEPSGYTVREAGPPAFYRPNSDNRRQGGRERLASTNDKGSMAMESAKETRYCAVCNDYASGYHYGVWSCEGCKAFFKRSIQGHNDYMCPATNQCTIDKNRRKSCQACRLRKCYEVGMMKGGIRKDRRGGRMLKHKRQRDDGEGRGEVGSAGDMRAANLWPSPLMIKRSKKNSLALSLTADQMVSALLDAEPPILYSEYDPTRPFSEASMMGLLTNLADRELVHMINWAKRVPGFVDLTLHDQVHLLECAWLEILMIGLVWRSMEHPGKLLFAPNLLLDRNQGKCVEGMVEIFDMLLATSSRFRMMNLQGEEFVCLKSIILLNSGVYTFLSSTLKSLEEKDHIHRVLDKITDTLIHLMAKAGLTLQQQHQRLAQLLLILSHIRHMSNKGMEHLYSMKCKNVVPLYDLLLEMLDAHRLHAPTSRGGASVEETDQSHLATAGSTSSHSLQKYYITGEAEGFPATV

In this test the target is ER (Homo sapiens (Human), UniProt P03372). Briefly: Western blot analysis (Compounds B1-B278). The test is classed as cell-based. The settings on record: ER degradation by traditional Western blot; DC50 classes. In a few lines:
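Compound-treated cells were lysed in RIPA buffer (Tris.HCl pH 7.6, 1% NP-40, deoxycholate, 0.1% SDS) with protease inhibitors; equal protein was resolved on 10% SDS-PAGE, transferred to PVDF and immunoblotted. Band intensities were quantified and normalized to GAPDH.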
For orientation: In western blotting, separated proteins are transferred to a membrane and probed.
Regarding `C[C@@H]1Cc2c([nH]c3ccccc23)[C@@H](c2c(F)cc(N3CCC(CN4CCC5(CC4)CC(N4Cc6cc7c(cc6C4)C(=O)N(C4CCC(=O)NC4=O)C7=O)C5)CC3)cc2F)N1CC(F)F` (stereo partly drawn) [Compound B69, 6-(7-((1-(4-((1R,3R)-2-(2,2-difluoroethyl)-3-methyl-2,3,4,9-tetrahydro-1H-pyrido[3,4-b]indol-1-yl)-3,5-difluorophenyl)piperidin-4-yl)methyl)-7-azaspiro[3.5]nonan-2-yl)-2-(2,6-dioxopiperidin-3-yl)-6,7-dihydropyrrolo[3,4-f]isoindole-1,3(2H,5H)-dione], the “Traditional Western Degradation Potency” value is given as “B (“B”: 10-100 nM)”.
In the case of `C[C@@H]1Cc2c([nH]c3ccccc23)[C@@H](c2c(F)cc(N3CCC(CN4CCC5(CCC(N6Cc7cc8c(cc7C6)C(=O)N(C6CCC(=O)NC6=O)C8=O)C5)CC4)CC3)cc2F)N1CC(F)F` (stereo partly drawn) [Compound B70, 6-(8-((1-(4-((1R,3R)-2-(2,2-difluoroethyl)-3-methyl-2,3,4,9-tetrahydro-1H-pyrido[3,4-b]indol-1-yl)-3,5-difluorophenyl)piperidin-4-yl)methyl)-8-azaspiro[4.5]decan-2-yl)-2-(2,6-dioxopiperidin-3-yl)-6,7-dihydropyrrolo[3,4-f]isoindole-1,3(2H,5H)-dione] it was “B (“B”: 10-100 nM)”.
With `C[C@@H]1Cc2c([nH]c3ccccc23)[C@@H](c2c(F)cc(N3CC(CC(=O)N4CC(N5Cc6cc7c(cc6C5)C(=O)N(C5CCC(=O)NC5=O)C7)C4)C3)cc2F)N1CC(F)F` (stereo partly drawn) [Compound B71, 3-(6-(1-(2-(1-(4-((1R,3R)-2-(2,2-difluoroethyl)-3-methyl-2,3,4,9-tetrahydro-1H-pyrido[3,4-b]indol-1-yl)-3,5-difluorophenyl)azetidin-3-yl)acetyl)azetidin-3-yl)-1-oxo-3,5,6,7-tetrahydropyrrolo[3,4-f]isoindol-2(1H)-yl)piperidine-2,6-dione] the entry was “B (“B”: 10-100 nM)”; with `C[C@@H]1Cc2c([nH]c3ccccc23)[C@@H](c2c(F)cc(N3CCC4(CCN(C(=O)CN5Cc6cc7c(cc6C5)C(=O)N(C5CCC(=O)NC5=O)C7=O)CC4)C3)cc2F)N1CC(F)F` (stereo partly drawn) [Compound B72, 6-(2-(2-(4-((1R,3R)-2-(2,2-difluoroethyl)-3-methyl-2,3,4,9-tetrahydro-1H-pyrido[3,4-b]indol-1-yl)-3,5-difluorophenyl)-2,8-diazaspiro[4.5]decan-8-yl)-2-oxoethyl)-2-(2,6-dioxopiperidin-3-yl)-6,7-dihydropyrrolo[3,4-f]isoindole-1,3(2H,5H)-dione], “A (“A”: <10 nM)”.
With `C[C@@H]1Cc2c([nH]c3ccccc23)[C@@H](c2c(F)cc(N3CCC(CN4Cc5cc6c(cc5C4)C(=O)N(C4CCC(=O)NC4=O)C6)CC3)cc2F)N1CC(F)F` (stereo partly drawn) [Compound B73, 3-(6-((1-(4-((1R,3R)-2-(2,2-difluoroethyl)-3-methyl-2,3,4,9-tetrahydro-1H-pyrido[3,4-b]indol-1-yl)-3,5-difluorophenyl)piperidin-4-yl)methyl)-1-oxo-3,5,6,7-tetrahydropyrrolo[3,4-f]isoindol-2(1H)-yl)piperidine-2,6-dione] the entry was “C (“C”: >100 nM)”.
For `C[C@@H]1Cc2c([nH]c3ccccc23)[C@@H](c2c(F)cc(N3CC(F)(C(=O)N4CCC(CN5Cc6cc7c(cc6C5)C(=O)N(C5CCC(=O)NC5=O)C7=O)CC4)C3)cc2F)N1CC(F)F` (stereo partly drawn) [Compound B74, 6-((1-(1-(4-((1R,3R)-2-(2,2-difluoroethyl)-3-methyl-2,3,4,9-tetrahydro-1H-pyrido[3,4-b]indol-1-yl)-3,5-difluorophenyl)-3-fluoroazetidine-3-carbonyl)piperidin-4-yl)methyl)-2-(2,6-dioxopiperidin-3-yl)-6,7-dihydropyrrolo[3,4-f]isoindole-1,3(2H,5H)-dione], the “Traditional Western Degradation Potency” value is given as “B (“B”: 10-100 nM)”.
In the case of `C[C@@H]1Cc2c([nH]c3ccccc23)[C@@H](c2c(F)cc(N3CC(F)(C(=O)N4CCC(F)(CN5Cc6cc7c(cc6C5)C(=O)N(C5CCC(=O)NC5=O)C7=O)CC4)C3)cc2F)N1CC(F)F` (stereo partly drawn) [Compound B75, 6-((1-(1-(4-((1R,3R)-2-(2,2-difluoroethyl)-3-methyl-2,3,4,9-tetrahydro-1H-pyrido[3,4-b]indol-1-yl)-3,5-difluorophenyl)-3-fluoroazetidine-3-carbonyl)-4-fluoropiperidin-4-yl)methyl)-2-(2,6-dioxopiperidin-3-yl)-6,7-dihydropyrrolo[3,4-f]isoindole-1,3(2H,5H)-dione] it was “C (“C”: >100 nM)”; in that of `C[C@@H]1Cc2c([nH]c3ccccc23)[C@@H](c2c(F)cc(N3CC(C(=O)N4CCC(CN5Cc6cc7c(cc6C5)C(=O)N(C5CCC(=O)NC5=O)C7=O)CC4)C3)cc2F)N1CC(F)F` (stereo partly drawn) [Compound B76, 6-((1-(1-(4-((1R,3R)-2-(2,2-difluoroethyl)-3-methyl-2,3,4,9-tetrahydro-1H-pyrido[3,4-b]indol-1-yl)-3,5-difluorophenyl)azetidine-3-carbonyl)piperidin-4-yl)methyl)-2-(2,6-dioxopiperidin-3-yl)-6,7-dihydropyrrolo[3,4-f]isoindole-1,3(2H,5H)-dione], “A (“A”: <10 nM)”.
Take `C[C@@H]1Cc2c([nH]c3ccccc23)[C@@H](c2c(F)cc(C3CCC(C(=O)N4CCC(N5Cc6cc7c(cc6C5)C(=O)N(C5CCC(=O)NC5=O)C7=O)CC4)CC3)cc2F)N1CC(F)F` (stereo partly drawn) [Compound B77, 6-(1-(4-(4-((1R,3R)-2-(2,2-difluoroethyl)-3-methyl-2,3,4,9-tetrahydro-1H-pyrido[3,4-b]indol-1-yl)-3,5-difluorophenyl)cyclohexane-1-carbonyl)piperidin-4-yl)-2-(2,6-dioxopiperidin-3-yl)-6,7-dihydropyrrolo[3,4-f]isoindole-1,3(2H,5H)-dione]: the “Traditional Western Degradation Potency” value was “A (“A”: <10 nM)”.
In the case of `C[C@@H]1Cc2c([nH]c3ccccc23)[C@@H](c2c(F)cc(C3CCC(C(=O)N4CCC(F)(CN5Cc6cc7c(cc6C5)C(=O)N(C5CCC(=O)NC5=O)C7=O)CC4)CC3)cc2F)N1CC(F)F` (stereo partly drawn) [Compound B78, 6-((1-(4-(4-((1R,3R)-2-(2,2-difluoroethyl)-3-methyl-2,3,4,9-tetrahydro-1H-pyrido[3,4-b]indol-1-yl)-3,5-difluorophenyl)cyclohexane-1-carbonyl)-4-fluoropiperidin-4-yl)methyl)-2-(2,6-dioxopiperidin-3-yl)-6,7-dihydropyrrolo[3,4-f]isoindole-1,3(2H,5H)-dione] it was “B (“B”: 10-100 nM)”; in that of `C[C@@H]1Cc2c([nH]c3ccccc23)[C@@H](c2c(F)cc(C3CCC(C(=O)N4CCC(CN5Cc6cc7c(cc6C5)C(=O)N(C5CCC(=O)NC5=O)C7=O)CC4)CC3)cc2F)N1CC(F)F` (stereo partly drawn) [Compound B79, 6-((1-(4-(4-((1R,3R)-2-(2,2-difluoroethyl)-3-methyl-2,3,4,9-tetrahydro-1H-pyrido[3,4-b]indol-1-yl)-3,5-difluorophenyl)cyclohexane-1-carbonyl)piperidin-4-yl)methyl)-2-(2,6-dioxopiperidin-3-yl)-6,7-dihydropyrrolo[3,4-f]isoindole-1,3(2H,5H)-dione], “C (“C”: >100 nM)”; in that of `C[C@@H]1Cc2c([nH]c3ccccc23)[C@@H](c2c(F)cc(C3CCC(C(=O)N4CC(N5Cc6cc7c(cc6C5)C(=O)N(C5CCC(=O)NC5=O)C7=O)C4)CC3)cc2F)N1CC(F)F` (stereo partly drawn) [Compound B80, 6-(1-(4-(4-((1R,3R)-2-(2,2-difluoroethyl)-3-methyl-2,3,4,9-tetrahydro-1H-pyrido[3,4-b]indol-1-yl)-3,5-difluorophenyl)cyclohexane-1-carbonyl)azetidin-3-yl)-2-(2,6-dioxopiperidin-3-yl)-6,7-dihydropyrrolo[3,4-f]isoindole-1,3(2H,5H)-dione], “C (“C”: >100 nM)”.
In the case of `C[C@@H]1Cc2c([nH]c3ccccc23)[C@@H](c2c(F)cc(C3CCC(C(=O)N4CC(CN5Cc6cc7c(cc6C5)C(=O)N(C5CCC(=O)NC5=O)C7=O)C4)CC3)cc2F)N1CC(F)F` (stereo partly drawn) [Compound B81, 6-((1-(4-(4-((1R,3R)-2-(2,2-difluoroethyl)-3-methyl-2,3,4,9-tetrahydro-1H-pyrido[3,4-b]indol-1-yl)-3,5-difluorophenyl)cyclohexane-1-carbonyl)azetidin-3-yl)methyl)-2-(2,6-dioxopiperidin-3-yl)-6,7-dihydropyrrolo[3,4-f]isoindole-1,3(2H,5H)-dione] it was “A (“A”: <10 nM)”.
`C[C@@H]1Cc2c([nH]c3ccccc23)[C@@H](c2c(F)cc(C3CCC(CN4CCC(N5Cc6cc7c(cc6C5)C(=O)N(C5CCC(=O)NC5=O)C7=O)CC4)CC3)cc2F)N1CC(F)F` (stereo partly drawn) [Compound B82, 6-(1-((4-(4-((1R,3R)-2-(2,2-difluoroethyl)-3-methyl-2,3,4,9-tetrahydro-1H-pyrido[3,4-b]indol-1-yl)-3,5-difluorophenyl)cyclohexyl)methyl)piperidin-4-yl)-2-(2,6-dioxopiperidin-3-yl)-6,7-dihydropyrrolo[3,4-f]isoindole-1,3(2H,5H)-dione]: the “Traditional Western Degradation Potency” value is recorded as “C (“C”: >100 nM)”.
In the case of `C[C@@H]1Cc2c([nH]c3ccccc23)[C@@H](c2c(F)cc(C3CCC(CN4CC(CN5Cc6cc7c(cc6C5)C(=O)N(C5CCC(=O)NC5=O)C7=O)C4)CC3)cc2F)N1CC(F)F` (stereo partly drawn) [Compound B83, 6-((1-((4-(4-((1R,3R)-2-(2,2-difluoroethyl)-3-methyl-2,3,4,9-tetrahydro-1H-pyrido[3,4-b]indol-1-yl)-3,5-difluorophenyl)cyclohexyl)methyl)azetidin-3-yl)methyl)-2-(2,6-dioxopiperidin-3-yl)-6,7-dihydropyrrolo[3,4-f]isoindole-1,3(2H,5H)-dione] it was “C (“C”: >100 nM)”.
